The target of series [1] is receptors (Bioprint panel) (Homo sapiens, UniProt P14867). Put plainly: biochemical. Format: binding. The note with it: GABAA1 (h) (alpha 1, beta 2, gamma 2) (agonist radioligand); 10 μM; read-out: % Inhibition of Control Specific Binding.
The target in series [2] is receptors (Bioprint panel) (Homo sapiens, UniProt P50406). Put plainly: biochemical. Format: binding. The note with it: read-out: % Inhibition of Control Specific Binding.
Series [3] addresses receptors (Bioprint panel) (Homo sapiens, UniProt P20309). Briefly: biochemical. The format is binding. Particulars: […] M3 (h) (antagonist radioligand); 10 μM; read-out: % Inhibition of Control Specific Binding.
Series [4] has as its target receptors (Bioprint panel) (Homo sapiens, UniProt P11229). Put plainly: biochemical. Format: binding. Particulars: […] M1 (h) (antagonist radioligand); 10 μM; read-out: % Inhibition of Control Specific Binding.
Series [5] has as its target receptors (Bioprint panel) (Homo sapiens, UniProt P34998). Put plainly: biochemical. Format: binding. The note with it: COR[…] FACTOR CRF1 (h) (agonist radioligand); 10 μM; read-out: % Inhibition of Control Specific Binding.
In series [6] the target is T1, receptors (Bioprint panel) (Homo sapiens, UniProt P30556).
T1 construct: other: ANGIOTENSIN II AT1 (h) (antagonist radioligand); 10 μM
T1 sequence (P30556 whole entry): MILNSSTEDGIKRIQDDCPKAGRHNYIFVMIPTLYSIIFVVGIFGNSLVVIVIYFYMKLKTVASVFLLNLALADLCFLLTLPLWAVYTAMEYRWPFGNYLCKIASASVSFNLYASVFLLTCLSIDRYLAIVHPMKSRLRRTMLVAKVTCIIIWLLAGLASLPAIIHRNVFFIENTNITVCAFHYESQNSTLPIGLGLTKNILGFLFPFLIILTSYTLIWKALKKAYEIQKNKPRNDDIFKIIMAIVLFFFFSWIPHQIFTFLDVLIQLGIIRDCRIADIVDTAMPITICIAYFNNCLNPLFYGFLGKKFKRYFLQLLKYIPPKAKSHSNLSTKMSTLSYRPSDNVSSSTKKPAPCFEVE
Put plainly: biochemical. The note with it: A[…] AT1 (h) (antagonist radioligand); 10 μM; read-out: % Inhibition of Control Specific Binding. The format is binding.

Series [7] concerns the target receptors (Bioprint panel) (Homo sapiens, UniProt P43116). Briefly: biochemical. Format: binding. The note with it: PROSTANOID EP2 (h) (agonist radioligand); 10 μM; read-out: % Inhibition of Control Specific Binding.
Series [8] has as its target receptors (Bioprint panel) (Homo sapiens, UniProt P25101). Briefly: biochemical. Format: binding. Particulars: […] (h) (agonist radioligand); 10 μM; read-out: % Inhibition of Control Specific Binding.
The target in series [9] is receptors (Bioprint panel) (Homo sapiens, UniProt P30872). Briefly: biochemical. Format: binding. Particulars: SOMASTATIN sst1 (h) (agonist radioligand); 10 μM; read-out: % Inhibition of Control Specific Binding.
Chain of receptors (Bioprint panel) (Homo sapiens, UniProt P30872) (P30872 whole entry): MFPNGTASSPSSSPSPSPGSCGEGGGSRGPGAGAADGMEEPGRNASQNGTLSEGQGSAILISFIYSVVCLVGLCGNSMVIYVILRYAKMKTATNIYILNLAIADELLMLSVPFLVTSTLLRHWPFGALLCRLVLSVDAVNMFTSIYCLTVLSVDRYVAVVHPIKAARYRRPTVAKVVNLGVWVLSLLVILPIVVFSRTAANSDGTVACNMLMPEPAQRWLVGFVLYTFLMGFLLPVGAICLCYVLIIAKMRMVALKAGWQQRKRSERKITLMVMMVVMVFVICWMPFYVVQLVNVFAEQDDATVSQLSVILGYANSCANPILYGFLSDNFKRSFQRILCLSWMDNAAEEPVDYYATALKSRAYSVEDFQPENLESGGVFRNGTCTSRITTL
Series [10] concerns the target receptors (Bioprint panel) (Homo sapiens, UniProt P13945). Put plainly: biochemical. Format: binding. Particulars: Adrenergic beta3; 10 μM; read-out: % Inhibition of Control Specific Binding.
The target in series [11] is receptors (Bioprint panel) (Homo sapiens, UniProt P32245). Briefly: biochemical. The format is binding. The note with it: MELANOCORTIN MC4 (h) (agonist radioligand); 10 μM; read-out: % Inhibition of Control Specific Binding.
Chain of receptors (Bioprint panel) (Homo sapiens, UniProt P32245) (P32245 whole entry): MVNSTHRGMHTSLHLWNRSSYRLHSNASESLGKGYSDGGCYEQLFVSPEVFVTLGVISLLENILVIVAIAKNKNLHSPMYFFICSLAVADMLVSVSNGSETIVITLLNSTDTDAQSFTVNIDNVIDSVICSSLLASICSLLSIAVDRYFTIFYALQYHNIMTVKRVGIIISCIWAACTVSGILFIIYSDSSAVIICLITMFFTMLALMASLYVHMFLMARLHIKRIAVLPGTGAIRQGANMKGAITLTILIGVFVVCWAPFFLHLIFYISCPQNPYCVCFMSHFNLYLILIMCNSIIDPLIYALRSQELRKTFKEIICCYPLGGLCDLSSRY
Series [12] deals with receptors (Bioprint panel) (Homo sapiens, UniProt P25103). Briefly: biochemical. The format is binding. The note with it: NEUROKININ NK1 (h) (agonist radioligand); 10 μM; read-out: % Inhibition of Control Specific Binding.
Chain of receptors (Bioprint panel) (Homo sapiens, UniProt P25103) (P25103 whole entry): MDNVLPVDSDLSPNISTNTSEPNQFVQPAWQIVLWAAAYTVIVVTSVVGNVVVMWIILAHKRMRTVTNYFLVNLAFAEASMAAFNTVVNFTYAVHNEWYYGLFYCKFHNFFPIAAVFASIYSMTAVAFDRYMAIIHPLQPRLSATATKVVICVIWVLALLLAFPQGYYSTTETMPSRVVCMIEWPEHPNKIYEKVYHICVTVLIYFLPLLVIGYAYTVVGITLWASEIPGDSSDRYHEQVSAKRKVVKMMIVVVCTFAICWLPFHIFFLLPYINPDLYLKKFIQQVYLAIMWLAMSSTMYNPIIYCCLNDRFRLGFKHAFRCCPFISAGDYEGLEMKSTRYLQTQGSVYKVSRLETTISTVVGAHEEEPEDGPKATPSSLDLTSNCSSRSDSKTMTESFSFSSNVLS
Series [13] concerns the target receptors (Bioprint panel) (Homo sapiens, UniProt P25929). Briefly: biochemical. The format is binding. Particulars: NE[…] Y1 (h) (agonist radioligand); 10 μM; read-out: % Inhibition of Control Specific Binding.
The target in series [14] is receptors (Bioprint panel) (Rattus norvegicus, UniProt P28564). Briefly: biochemical. Format: binding. The note with it: read-out: % Inhibition of Control Specific Binding.
The target in series [15] is receptors (Bioprint panel) (Homo sapiens, UniProt P08908). Put plainly: biochemical. The format is binding. Particulars: read-out: % Inhibition of Control Specific Binding.
Chain of receptors (Bioprint panel) (Homo sapiens, UniProt P08908) (P08908 whole entry): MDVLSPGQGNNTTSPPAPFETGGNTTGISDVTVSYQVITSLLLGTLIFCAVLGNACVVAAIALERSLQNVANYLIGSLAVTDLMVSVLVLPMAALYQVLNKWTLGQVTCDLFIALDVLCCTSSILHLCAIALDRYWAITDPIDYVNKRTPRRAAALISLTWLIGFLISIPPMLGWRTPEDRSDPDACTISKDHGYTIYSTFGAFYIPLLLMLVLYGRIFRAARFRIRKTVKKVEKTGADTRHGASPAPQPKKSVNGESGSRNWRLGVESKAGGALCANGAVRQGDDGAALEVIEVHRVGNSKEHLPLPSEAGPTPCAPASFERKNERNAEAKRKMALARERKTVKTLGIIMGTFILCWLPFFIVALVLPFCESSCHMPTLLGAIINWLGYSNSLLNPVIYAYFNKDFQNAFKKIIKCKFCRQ
In another series the target is dopamine D1 (h) (Homo sapiens, UniProt P21728). Put plainly: biochemical. Format: binding.
Chain of dopamine D1 (h) (P21728 whole entry): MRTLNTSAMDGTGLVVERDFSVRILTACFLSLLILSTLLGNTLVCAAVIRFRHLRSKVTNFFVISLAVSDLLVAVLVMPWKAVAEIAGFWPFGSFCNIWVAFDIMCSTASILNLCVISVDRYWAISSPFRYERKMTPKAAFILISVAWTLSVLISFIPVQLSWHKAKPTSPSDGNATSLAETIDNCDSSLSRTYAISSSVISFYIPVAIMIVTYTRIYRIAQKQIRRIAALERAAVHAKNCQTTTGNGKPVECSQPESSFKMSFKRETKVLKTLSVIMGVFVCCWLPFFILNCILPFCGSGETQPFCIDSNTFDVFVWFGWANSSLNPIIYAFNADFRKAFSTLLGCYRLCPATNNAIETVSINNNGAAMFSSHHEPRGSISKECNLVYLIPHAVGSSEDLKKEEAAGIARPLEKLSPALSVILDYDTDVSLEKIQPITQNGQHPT
Series [16] deals with 4 normal cell types, CCD 841 CoN, HMEC, HREC and Wi38. Put plainly: OncoPanel normal cell proliferation assay (3-day), panel. Format: cell-based. Particulars: all 4 cell lines.
Another series concerns MLL4(h) complex. Particulars: read-out: Reference: (IC50 not given); cited from earlier work.
In a further series the target is SETDB1 (h) (Homo sapiens, UniProt Q15047). The note with it: read-out: Reference: (IC50 not given); cited from earlier work.

pIC50: −log10 of the molar value. Like-named read-outs stand apart in the source and are kept apart here.

Chain of receptors (Bioprint panel) (Homo sapiens, UniProt P11229) (P11229 whole entry): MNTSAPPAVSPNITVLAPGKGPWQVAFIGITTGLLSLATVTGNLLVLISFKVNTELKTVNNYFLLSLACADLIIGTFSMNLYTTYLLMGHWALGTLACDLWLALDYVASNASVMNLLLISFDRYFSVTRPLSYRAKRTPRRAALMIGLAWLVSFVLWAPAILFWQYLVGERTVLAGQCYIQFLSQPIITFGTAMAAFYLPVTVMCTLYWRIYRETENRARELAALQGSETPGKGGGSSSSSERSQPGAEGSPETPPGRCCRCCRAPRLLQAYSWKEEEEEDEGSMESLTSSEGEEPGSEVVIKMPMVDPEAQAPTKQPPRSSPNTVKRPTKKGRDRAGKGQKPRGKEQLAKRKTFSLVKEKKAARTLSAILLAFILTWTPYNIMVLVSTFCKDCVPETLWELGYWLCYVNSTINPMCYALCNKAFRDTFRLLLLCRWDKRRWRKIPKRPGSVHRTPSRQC
Chain of receptors (Bioprint panel) (Homo sapiens, UniProt P13945) (P13945 whole entry): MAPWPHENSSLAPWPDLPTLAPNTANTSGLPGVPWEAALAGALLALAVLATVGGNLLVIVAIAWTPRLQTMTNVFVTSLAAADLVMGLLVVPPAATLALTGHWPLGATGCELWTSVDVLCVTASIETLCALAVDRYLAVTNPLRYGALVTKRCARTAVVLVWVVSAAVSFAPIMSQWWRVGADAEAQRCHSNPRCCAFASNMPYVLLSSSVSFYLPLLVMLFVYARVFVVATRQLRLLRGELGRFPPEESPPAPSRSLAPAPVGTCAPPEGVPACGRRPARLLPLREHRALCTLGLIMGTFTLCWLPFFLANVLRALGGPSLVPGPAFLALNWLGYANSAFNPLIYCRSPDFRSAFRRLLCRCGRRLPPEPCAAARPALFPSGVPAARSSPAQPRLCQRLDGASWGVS
Chain of receptors (Bioprint panel) (Homo sapiens, UniProt P34998) (P34998 24-415): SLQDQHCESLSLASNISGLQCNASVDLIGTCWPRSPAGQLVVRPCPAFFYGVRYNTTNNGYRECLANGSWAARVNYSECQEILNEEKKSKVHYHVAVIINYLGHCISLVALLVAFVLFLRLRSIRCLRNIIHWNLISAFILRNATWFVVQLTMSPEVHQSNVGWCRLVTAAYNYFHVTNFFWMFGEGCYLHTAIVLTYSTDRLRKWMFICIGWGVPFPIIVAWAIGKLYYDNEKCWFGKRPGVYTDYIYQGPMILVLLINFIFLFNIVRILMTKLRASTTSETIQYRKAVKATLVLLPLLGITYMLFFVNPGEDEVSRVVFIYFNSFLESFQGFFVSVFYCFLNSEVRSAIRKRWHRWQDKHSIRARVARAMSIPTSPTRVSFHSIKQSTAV
Chain of receptors (Bioprint panel) (Homo sapiens, UniProt P20309) (P20309 whole entry): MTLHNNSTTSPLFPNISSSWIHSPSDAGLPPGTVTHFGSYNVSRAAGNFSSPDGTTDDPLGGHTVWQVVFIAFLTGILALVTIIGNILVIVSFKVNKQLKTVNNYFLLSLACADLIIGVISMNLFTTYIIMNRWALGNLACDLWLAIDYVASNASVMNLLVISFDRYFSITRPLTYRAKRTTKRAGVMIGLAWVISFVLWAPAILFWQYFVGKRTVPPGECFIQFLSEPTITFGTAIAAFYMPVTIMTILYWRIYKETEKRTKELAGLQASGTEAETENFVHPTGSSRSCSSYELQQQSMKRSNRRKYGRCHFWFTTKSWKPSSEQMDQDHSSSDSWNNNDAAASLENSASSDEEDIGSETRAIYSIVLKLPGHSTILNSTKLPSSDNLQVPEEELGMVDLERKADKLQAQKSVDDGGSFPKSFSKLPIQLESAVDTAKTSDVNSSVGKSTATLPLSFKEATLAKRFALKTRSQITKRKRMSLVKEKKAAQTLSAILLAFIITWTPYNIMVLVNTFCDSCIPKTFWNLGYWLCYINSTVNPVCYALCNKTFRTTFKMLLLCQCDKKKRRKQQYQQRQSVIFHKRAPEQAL
Chain of receptors (Bioprint panel) (Homo sapiens, UniProt P50406) (P50406 whole entry): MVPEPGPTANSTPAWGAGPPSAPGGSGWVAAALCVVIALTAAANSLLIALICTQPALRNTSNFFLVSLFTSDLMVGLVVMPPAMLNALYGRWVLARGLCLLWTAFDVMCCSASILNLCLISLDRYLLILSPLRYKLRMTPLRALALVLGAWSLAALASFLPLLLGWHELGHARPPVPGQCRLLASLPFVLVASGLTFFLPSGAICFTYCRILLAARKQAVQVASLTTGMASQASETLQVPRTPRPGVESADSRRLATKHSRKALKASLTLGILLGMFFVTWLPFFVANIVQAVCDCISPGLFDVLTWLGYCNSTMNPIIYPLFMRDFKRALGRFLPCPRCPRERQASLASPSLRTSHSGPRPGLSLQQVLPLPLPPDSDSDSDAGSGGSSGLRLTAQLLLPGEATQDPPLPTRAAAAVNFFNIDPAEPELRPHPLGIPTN

Consider `CC(C)=CCC[C@H](CO)[C@@H]1CC[C@@H](C)c2c1cc(C)c(O)c2O` [Compound 1, 7,8,18-trihydroxyserrulat-14-ene], for which the inhibition (commonly the drop in the measured response relative to a control, in per cent) at 10 µM is -36% in series [1]; 42% in series [2]; -3% in series [3]; 8% in series [4]; 34% in series [5]; 60% in series [6]. The inhibition at 10 µM was determined as 53% in series [7]; 6% in [8]; 18% in series [9]; 33% in series [10]; 37% in [11]; 62% in [12]. For the same compound, the inhibition at 10 µM in [13] was 29%; in series [14] it was 42%; in series [15], -18%; on dopamine D1 (h) (DOPAMINE D1 (h) (antagonist radioligand), read-out: % Inhibition of Control Specific Binding), 67%; at dopamine D1 (h) (read-out: % inhibition of control specific binding), 67%. Moreover, the “toxicity towards normal cells” value in series [16] is recorded as “relatively low toxicity”.

With `Nc1ncnc2c1ncn2[C@@H]1O[C@H](CSCC[C@H](N)C(=O)O)[C@@H](O)[C@H]1O` [SAH], the pIC50 – broadly, −log10 of the IC50, conventionally taken in molar units – is 6.01 in the series with MLL4(h) complex and 5.74 on SETDB1 (h).

These data come from patent US11331299B2, “Medicinal use of serrulatane diterpenes” (The University of Sydney, priority 2016, dated 2022).
